In US11821042B2, “Targeting chromosomal instability and downstream cytosolic DNA signaling for cancer treatment” (Cornell University, priority 2017, dated 2023):

System: MDA-MB-231 cells
Assay: In vitro invasion assay through collagen membrane (CytoSelect)
Format: cell-based, human
Conditions: addition to MCAK (CIN-low) cells
Protocol: For the invasion and migration/chemotaxis assays the CytoSelect cell invasion (CBA-110) and cell migration (CBA-100) kits, respectively, were used. Briefly, 3×10^5 cells were suspended in serum-free media and placed on top of the membrane. […] For the chemotaxis assay, we used a colorimetric approach (OD 560 nm) for quantification. For the scratch assay, cells were treated with mitomycin C (10 μgml^−1) for 1 hour when they reached >90% confluence and then placed in DMEM containing 1% FBS. Wounds were applied using p200 pipette tip and images of the wound were taken immediately and at subsequent regular intervals. ImageJ was used for quantification of wound surface area.

Structure (SMILES): Nc1nc2c(ncn2[C@@H]2O[C@@H]3COP(=O)(O)O[C@H]4[C@@H](O)[C@H](n5cnc6c(N)ncnc65)O[C@@H]4COP(=O)(O)O[C@@H]2[C@@H]3O)c(=O)[nH]1 [cGAMP, cyclic guanosine monophosphate-adenosine monophosphate]
- ability to migrate and invade through a collagen membrane: increased
